This note sets out measurements from paper PMC7132281 (Proceedings of the National Academy of Sciences of the …, 2020).

The experiment has as its target T1, AtaC (Vnz_27310) (Streptomyces venezuelae, UniProt F2R7Z6, D269N).
T1 sequence (F2R7Z6 1-401 D269N): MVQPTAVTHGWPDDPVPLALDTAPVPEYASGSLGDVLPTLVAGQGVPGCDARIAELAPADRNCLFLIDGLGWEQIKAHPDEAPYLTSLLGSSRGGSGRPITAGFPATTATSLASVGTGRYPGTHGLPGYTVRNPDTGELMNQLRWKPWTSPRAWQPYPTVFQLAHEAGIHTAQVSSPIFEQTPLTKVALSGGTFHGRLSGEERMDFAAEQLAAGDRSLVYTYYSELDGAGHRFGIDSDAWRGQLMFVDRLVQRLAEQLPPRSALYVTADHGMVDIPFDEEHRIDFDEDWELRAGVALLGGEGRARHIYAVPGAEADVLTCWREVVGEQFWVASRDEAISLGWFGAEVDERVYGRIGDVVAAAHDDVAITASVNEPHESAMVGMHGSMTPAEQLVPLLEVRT
Put plainly: ITC. The class given is binding.

Broadly, the Kd is the constant that tells how readily two partners part at equilibrium. In turn, `Nc1ncnc2c1ncn2[C@@H]1O[C@@H]2COP(=O)(O)O[C@H]3[C@@H](O)[C@H](n4cnc5c(N)ncnc54)O[C@@H]3COP(=O)(O)O[C@H]2[C@H]1O` [c-di-AMP] had an equilibrium dissociation constant (Kd) of 949 ± 360 nM.
